The source of these data is US5990277A, “Semipeptoid farnesyl protein transferase inhibitors and analogs thereof” (Yissum Research Development Company of the Herbrew …, priority 1996, dated 1999).

Assay [1] deals with T1, Farnesyl protein transferase (FT) (Bos taurus, UniProt P29702+P49355).
T1 construct: Partial purification of FT from bovine brain; from tissue; host or cells: bovine brain
In words: Farnesyl protein transferase (FT) inhibition assay. Type of assay: biochemical, bovine. The following applies: for IC50: partially purified FT, Gst-HRas substrate. As for the experimental part: FT activity was quantified by measuring the incorporation of [^3 H]farnesyl from all-trans-[^3 H]farnesylpyrophosphate into purified Gst-HRas.
Partial purification of FT from bovine brain was performed essentially as described by Reiss at al. (Reiss et al, Cell, 1990, 62: 81), except that a fractogel DEAE column (150×16 mm, Merck) was used for the ion exchange chromatagraphy step. GST-HRas expression vector was constructed by cloning the Hras gene into a pGEX-1 vector, and expressed in E. coli strain TG1. The protein was purified using glutathione agarose (Sigma USA). FT inhibition assays were run in 96-well dishes in a reaction volume of […]. The final reaction mixture contained 5 mM GST-HRas, 0.9 mM [^3 H]farnesylpyrophosphate 20,000 dmp/pmol (NEN-Dupont), 1 mg of partially purified FT, 5 mM MgCl2, 3 mM ZnCl2, 40 mM TRIS.HCl pH 7.5, 60 mM NaCl, 1 mM DTT, 0.2 mM Glutathione, 0.03% Octyl-b-D-glucopyranoside, and serial dilutions of inhibitor.
Following incubation at 37° C. for 30 minutes the reactions were stopped by adding 100 ml of 4% sodium dodecyl sulfate (SDS) followed by 100 ml of 30% trichloroacetic acid (TCA). Plates were incubated for 100 minutes on ice, and the precipitates were filtered using a Millipore milliblot™-system (Millipore Corp., Bedford Mass.) with GF/C membranes. The wells were washed twice with 200 ml of 2% SDS/6% TCA and 7 times with […] of 6% TCA. The filters were punched into 4 ml vials and dried at 70° C. for 10 minutes. 3 ml of scintillation fluid was added and radioactivity was monitored by scintillation counting. IC50 values were resolved from dose-response curves of percent control versus log drug concentration, using the Regression program (Blackwell, UK). Each compound was tested 2-4 times.

Assay [2] addresses T2, Geranylgeranyl transferase-I (GGT) (Bos taurus, UniProt P29702+Q5EAD5).
T2 construct: GGT was partially purified from bovine brain; from tissue; host or cells: bovine brain cytosol
The assay can be described thus: Geranylgeranyl transferase-I (GGT) inhibition assay. The assay is classed as biochemical, bovine. The following applies: partially purified GGT, Gst-HRas-CVLL substrate. From the text: The second assay estimated the selectivity of the inhibitor towards FT over a related enzyme, geranylgeranyl-protein-transferase-I (GGT), which transfers a C20 -isoprenoid to a thiol group of cysteine of a C-terminal CAAL (SEQ ID NO:17) peptide sequence derived from geranylgeranylpyrophosphate. Geranylgeranylation of normal cellular proteins is 5-10 times more common than farnesylation (Gibbs et al., Cell, 1994, 77: 175; Gibbs, Cell, 1991, 65: 1; Maltese,. FASEB J., 1990, 4: 3319).
A selective FT-inhibitor is considered to cause fewer cytotoxic effects than a nonselective inhibitor of both FT and GGT. GGT activity, for the partially purified GGT enzyme (Moores et al., J. Biol. Chem., 1991, 266: 14603), was quantified by measuring the incorporation of [^3 H]geranylgeranyl from all trans [^3 H]geranylgeranylpyrophosphate, into purified Gst-HRas-CVLL.
GGT was partially purified from bovine brain. Cytosol was prepared and GGT was isolated using a fractogel DEAE column (150×16 mm, Merck) with NaCl gradient, as for FT purification (see Example 15 above). Fractions containing the GGT activity were pooled and stored at -70° C. Hras gene was point mutated using an oligonucleotide directed in vitro mutagenesis system (Amersham version 2.1). The mutated Hras gene was cloned into the GST--frame of a pGEX-1 expression vector, expressed in E. coli strain TG1, and a fusion protein Gst-HRas-CVLL (SEQ ID NO:22) was purified on glutathione agarose.

The target in assay [3] is T3, FT (Bos taurus, UniProt P29702+P49355).
T3 construct: Partial purification of FT from bovine brain; from tissue; host or cells: bovine brain
The assay can be described thus: Inhibitor farnesylation assay (alternative substrate). The assay is classed as biochemical, bovine. The following applies: incubated with FT and [3H]farnesylpyrophosphate in the absence of Ras. Here is the method: The third assay checked whether the inhibitor itself undergoes farnesylation. For this purpose, the inhibitor was incubated with the FT enzyme and [^3 H]farnesylpyrophosphate in the absence of Ras.
For examination whether the inhibitors undergo farnesylation a previously described procedure (Goldstein et al., J. Biol. Chem., 1991, 266: 15575) was used. Each reaction mixture contained the following components in a final volume of […]: 40 mM TRIS.HCl pH 7.5, 67 mM NaCl, 5 mM MgCl2, 7 mM ZnCl2, 1 mM DTT, 0.07% (v/v) octyl-b-D-glucopyranoside, 20 pmol of [^3 H]farnesylpyrophosphate 45,000 dpm/pmol, 4 mM peptide or peptoid, and 1 mg of partially purified FT. After incubation at 37° C. for 30 minutes, the entire reaction mixture was spotted onto an aluminum backed Silica Gel thin layer sheet (20×20 cm, Merck), and placed in a tank containing n-propyl-alcohol/ammonium hydroxide/water (6:3:1, v/v/v). The chromatogram was run for 4 hours, sprayed with EN^3 HANCE (Dupont) and exposed to RX film (FUJI) for 4 days at -70° C.

In assay [4] the test system is Ras processing in v-Ha-ras transformed NIH3T3 cells. In words: Protein processing assay in intact cells: Ras. Particulars: 48 hr, western blot, compared with vehicle. The assay is classed as cell-based.
Method: Its selectivity towards FT as compared to GGT in whole cells, was determined by its relative inhibitory effects on Ras farnesylation and on Rap1A/Krev geranylgeranylation (Casey, J. Lipid Res. 1992, 33, 1731-1740; Cox et al., Curr. Opin. Cell Biol. 1992, 4, 1008-1016; Garcia et al., J. Biol. Chem. 1993, 268, 18415-18418; and Vogt et al., J. Biol. Chem. 1995, 270, 660-664), respectively. v-Ha-ras transformed NIH3T3 cells were incubated with lovastatin or increasing concentrations of the inhibitor. Cells were lysed and the processed and unprocessed forms of Ras or Rap1A were separated by SDS-PAGE and immunoblotted with anti-Ras or anti-Rap1A antibodies, respectively. Lovastatin is a compound which blocks the processing of isoprenylated proteins in cells by inhibiting an early step of the isoprenoid biosynthetic pathway, and therefore serves as a positive control for the inhibition of both geraylgeranylation and farnesylation (Kohl et al., Science 1993, 260, 1934-1937; Garcia et al., J. Biol. Chem. 1993, 268, 18415-18418; Vogt et al., J. Biol. Chem. 1995, 270, 660-664).
After 48 hr of incubation, cell extracts were separated on SDS-PAGE and immunoblotted with anti-Ras antibody.
Cells were lysed (Garcia et al., J. Biol. Chem. 1993, 268, 18415-18418) in 1% Nonidet P-40, 5 mM TRIS.HCl pH 8.0, 5 mM EDTA, 1 mM phenylmethylsulfonyl fluoride, 10 mg/ml aprotonin, 10 mg/ml soybean trypsin inhibitor and 313 mg/ml benzamidine. The lysate was separated by centriflgation and the supernatant used as cell extract. Total protein was separated by SDS-PAGE (40 mg/lane) in 15% acrylamide (0.4% bis-acrylamide) gels, transferred onto nitrocellulose (Schleicher & Schuell, optitran BA-S 85) and probed with anti-Ras antibody Y13-259, or monoclonal anti-Rap1A/K-rev antibody (transduction laboratories). The western blots were visualized using an enhanced chemiluminescence (ECL) detection system.
Assay [5] deals with Rap1A/K-rev processing in v-Ha-ras transformed NIH3T3 cells. The assay can be described thus: Protein processing assay in intact cells: Rap1A/K-rev. The assay is classed as cell-based. The following applies: 48 hr, western blot. A general note: In western blotting, separated proteins are transferred to a membrane and probed.
Method: Its selectivity towards FT as compared to GGT in whole cells, was determined by its relative inhibitory effects on Ras farnesylation and on Rap1A/Krev geranylgeranylation (Casey, J. Lipid Res. 1992, 33, 1731-1740; Cox et al., Curr. Opin. Cell Biol. 1992, 4, 1008-1016; Garcia et al., J. Biol. Chem. 1993, 268, 18415-18418; and Vogt et al., J. Biol. Chem. 1995, 270, 660-664), respectively. v-Ha-ras transformed NIH3T3 cells were incubated with lovastatin or increasing concentrations of the inhibitor. Cells were lysed and the processed and unprocessed forms of Ras or Rap1A were separated by SDS-PAGE and immunoblotted with anti-Ras or anti-Rap1A antibodies, respectively.
To test the selectivity of compound 12 towards FT in whole cells, the post-translational processing of an endogenous geranylgeranylated protein, Rap1A/K-rev, was analyzed.
v-Ha-ras transformed NIH3T3 fibroblasts were treated with 15 mM lovastatin or the indicated concentrations of compound 12 or vehicle (0.25 mM DTT, 0.25% DMSO), for 48 hr. Cells were lysed (Garcia et al., J. Biol. Chem. 1993, 268, 18415-18418) in 1% Nonidet P-40, 5 mM TRIS.HCl pH 8.0, 5 mM EDTA, 1 mM phenylmethylsulfonyl fluoride, 10 mg/ml aprotonin, 10 mg/ml soybean trypsin inhibitor and 313 mg/ml benzamidine. The lysate was separated by centriflgation and the supernatant used as cell extract. […]
The target in assay [6] is farnesyl protein transferase (Homo sapiens, UniProt P49354+P49356). The following applies: cited from earlier work; for farnesyl protein transferase inhibitory potency in vitro: literature.
Assay [7] relates to Ras processing in cells transformed with v-ras. The following applies: cited from earlier work.

Square brackets hold non-standard residues; d marks the D form. Ends that are not written are not given here. Peptide text beside a SMILES is read from it. * marks the point of attachment. N(3,4-(MeO)2phenethyl)Gly = COc1ccc(CCNCC(=O)O)cc1OC; Farnesyl = CC(C)=CCC/C(C)=C/CC/C(C)=C/C*; Gly(NCH2CH2Ph) = O=C(O)CNCCc1ccccc1; Gly(N-cHex) = O=C(O)CNC1CCCCC1; NMeV = CN[C@H](C(=O)O)C(C)C; N(iPr)Gly = CC(C)NCC(=O)O; Nphe = O=C(O)CNCc1ccccc1; Nleu = CC(C)CNCC(=O)O

For the compound `CSCC[C@H](NC(=O)CN(C(=O)[C@H](C(C)C)N(C)C(=O)[C@@H](N)CS)C1CCCCC1)C(=O)O` [Semipeptoid 11, cysteinyl-(Nα-methyl)valyl-(Nα-cyclohexyl)glycyl-methionine] (H-C[NMeV][Gly(N-cHex)]M-OH), the “increase of selectivity versus compound 4” value in assay [1] (FT over GGT, versus compound 4) was found to be 11 fold. Besides, the values for the concentration for half-maximal inhibition (IC50) in assay [1] and in assay [2] were 0.0012 µM and 0.91 µM, respectively. Also, the “IC50 (GGT)/IC50 (FT)” value in assay [1] (selectivity ratio) is 758. Also, the “improvement of potency versus compound 4 (FT)” value in assay [1] (versus compound 4) turned out to be 58 fold. For the same compound, the results for the “alternative substrate (inhibitor itself farnesylated)” value in assay [3] (listed as 11) and in assay [3] (listed as compound 11) were “no” and “non-farnesylated”, respectively.

Regarding `CSCC[C@H](NC(=O)CN(Cc1ccccc1)C(=O)CN(CCN(C)C)C(=O)[C@@H](N)CS)C(=O)O` [Semipeptoid 7, cysteinyl-(Nα(N,N-dimethylaminoethyl))glycyl-(Nα-benzyl)glycyl-methionine], the concentration for half-maximal inhibition (IC50) in assay [1] worked out at 3 µM; in assay [2], 40 µM. The “alternative substrate (inhibitor itself farnesylated)” value in assay [3] is recorded as “no”.

As to `CSCC[C@H](NC(=O)CN(CCc1ccccc1)C(=O)[C@@H](NC(=O)[C@@H](N)CS)C(C)C)C(=O)O` [Semipeptoid 2, cysteinyl-valyl-(Nα-phenethyl)glycyl-methionine] (H-CV[Gly(NCH2CH2Ph)]M-OH), the IC50 in assay [1] was 0.32 µM; in assay [2], 30 µM. In addition, in assay [1] (versus compound 1), the “reduction of relative potency versus compound 1 (FT)” value is reported as 3.2 fold. The “alternative substrate (inhibitor itself farnesylated)” value in assay [3] is recorded as “no”.

With `CSCC[C@H](NC(=O)[C@H](Cc1ccccc1)NC(=O)CN(C(=O)[C@@H](N)CS)C(C)C)C(=O)O` [Semipeptoid 8, cysteinyl-(Nα-isopropyl)glycyl-phenylalanyl-methionine] (H-C[N(iPr)Gly]FM-OH), the figures for the concentration for half-maximal inhibition (IC50) in assay [1] and in assay [2] were 50 µM and 155 µM, respectively. In addition, the “alternative substrate (inhibitor itself farnesylated)” value in assay [3] is on record as “no”.

Regarding `CC[C@H](C)C(=O)O[C@H]1C[C@@H](C)C=C2C=C[C@H](C)[C@H](CC[C@@H]3C[C@@H](O)CC(=O)O3)[C@H]21` [lovastatin, reference compound], the “effect on Ras processing” value in assay [4] is “increased amount of unprocessed Ras versus processed Ras”. In addition, in assay [5], the “effect on Rap1A/K-rev processing” value is listed as “did inhibit Rap1A/K-rev processing”.

As to `CSCC[C@H](NC(=O)[C@H](Cc1ccccc1)NC(=O)CN(CC(C)C)C(=O)[C@@H](N)CS)C(=O)O` [Semipeptoid 10, cysteinyl-(Nα-isobutyl)glycyl-phenylalanyl-methionine] (H-C[Nleu]FM-OH), the half-maximal inhibitory concentration (IC50) worked out at 75 µM in assay [1] and 240 µM in assay [2]. Further, in assay [3], the “alternative substrate (inhibitor itself farnesylated)” value is given as “no”.

On to `COc1ccc(CCN(CC(=O)N[C@@H](CCSC)C(=O)O)C(=O)[C@@H](NC(=O)[C@@H](N)CS)C(C)C)cc1OC` [Semipeptoid 3, cysteinyl-valyl-(Nα-3,4-dimetoxyphenethyl)glycyl-methionine] (H-CV[N(3,4-(MeO)2phenethyl)Gly]M-OH), for which the concentration for half-maximal inhibition (IC50) was 0.12 µM in assay [1] and 23 µM in assay [2]. Besides, the “times more potent than compound 6 (FT)” value in assay [1] (versus compound 6) is 33 times. In addition, the “alternative substrate (inhibitor itself farnesylated)” value in assay [3] is listed as “no”.

Take `CSCC[C@H](NC(=O)CN(C(=O)[C@@H](NC(=O)[C@@H](N)CS)C(C)C)C1CCCCC1)C(=O)O` [Semipeptoid 4, cysteinyl-valyl-(Nα-cyclohexyl)glycyl-methionine] (H-CV[Gly(N-cHex)]M-OH): the results for the half-inhibitory concentration (IC50) in assay [1] and in assay [2] were 0.07 µM and 5 µM, respectively. Besides, the “alternative substrate (inhibitor itself farnesylated)” value in assay [3] is “no”.

Regarding `CC[C@H](C)[C@H](NC[C@@H](NC[C@@H](N)CS)[C@@H](C)CC)C(=O)N[C@@H](CCO)C(=O)O` [L-731,735, N-{2(S)-[2(R)-amino-3-mercaptopropylamino]-3(S)-methylpentyl}isoleucyl-homoserine], the “farnesyl protein transferase inhibitory potency in vitro” value in assay [6] was “potent and selective inhibitor”. Further, the “effect on Ras processing in cells” value in assay [7] was “no effect on Ras processing”.

As to `COc1ccc(CCN(CC(=O)N[C@@H](CCSC)C(=O)O)C(=O)CN(C(=O)[C@@H](N)CS)C(C)C)cc1OC` [Semipeptoid 6, cysteinyl-(Nα-isopropyl)glycyl-(Nα-3,4-dimetoxyphenethyl)glycyl-methionine] (H-C[N(iPr)Gly][N(3,4-(MeO)2phenethyl)Gly]M-OH), the concentration for half-maximal inhibition (IC50) is 4 µM in assay [1] and 80 µM in assay [2]. In addition, in assay [3], the “alternative substrate (inhibitor itself farnesylated)” value is listed as “no”.

For `CSCC[C@H](NC(=O)CN(Cc1ccccc1)C(=O)[C@@H](NC(=O)[C@@H](N)CS)C(C)C)C(=O)O` [Semipeptoid 1, cysteinyl-valyl-(Nα-benzyl)glycyl-methionine] (H-CV[Nphe]M-OH), the results for the IC50 in assay [1] and in assay [2] were 0.1 µM and 40 µM, respectively. For the same compound, the “fold more potent than compound 5 (FT)” value in assay [1] (versus compound 5) turned out to be 130 fold. In assay [1] (versus compound 8), the “fold more potent than compound 8 (FT)” value worked out at 500 fold. Also, the “alternative substrate (inhibitor itself farnesylated)” value in assay [3] is reported as “no”.

As to “CVLS: CAAX tetrapeptide (SEQ ID NO:18); the result concerns its farnesylated form (C(Farnesyl)VLS)”, the “fold less potent as inhibitor: farnesylated peptide versus its corresponding tetrapeptide” value in assay [6] (farnesylated form of the peptide) is on record as “about 13 fold”.

`CSCC[C@H](NC(=O)CN(Cc1ccccc1)C(=O)CN(C(=O)[C@@H](N)CS)C(C)C)C(=O)O` [Semipeptoid 5, cysteinyl-(Nα-isopropyl)glycyl-(Nα-benzyl)glycyl-methionine] (H-C[N(iPr)Gly][Nphe]M-OH): the half-inhibitory concentration (IC50) came to 13 µM in assay [1] and 190 µM in assay [2]. In addition, the “alternative substrate (inhibitor itself farnesylated)” value in assay [3] was “no”.

Turning to `CSCC[C@H](NC(=O)[C@H](Cc1ccccc1)NC(=O)CN(CCN(C)C)C(=O)[C@@H](N)CS)C(=O)O` [Semipeptoid 9, cysteinyl-(Nα(N,N-dimethylaminoethyl))glycyl-phenylalanyl-methionine], the IC50 in assay [1] is 4 µM; in assay [2] it was more than 400 µM. Moreover, in assay [3], the “alternative substrate (inhibitor itself farnesylated)” value was “no”.

`CC[C@H](C)[C@@H](CO[C@@H](Cc1ccccc1)C(=O)N[C@@H](CCS(C)(=O)=O)C(=O)O)NC[C@@H](N)CS` [L-739,750]: the “farnesyl protein transferase inhibitory potency in vitro” value in assay [6] is recorded as “potent inhibitor”.

Usually IC50 stands for the concentration that inhibits the measured activity by half. Read a low IC50 as greater potency.
